Values joined by “and” are separate entries in the source; they are usually repeats but may differ in a detail not shown here. Equal values may be shown once.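 Tested at 5 concentrations; 48 h exposure; 96-well plates; endpoints linearly interpolated, else capped at highest concentration. At the GI50, growth is halved. TGI is the concentration that stops growth completely.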 Where a SMILES comes first, the peptide text is derived from it. The star is where a group is joined. Cbz = O=C(OCc1ccccc1)*
Tests used:
Experiment in all cases: NCI anticancer screen, dose series, 48 h
SK-OV-3 ovarian = system: SK-OV-3 ovarian
SF-295 CNS = system: SF-295 CNS
LOX IMVI melanoma = system: LOX IMVI melanoma
MCF7 breast = system: MCF7 breast
OVCAR-3 ovarian = system: OVCAR-3 ovarian
CCRF-CEM leukemia = system: CCRF-CEM leukemia
EKVX NSCLC = system: EKVX NSCLC
MDA-MB-231 breast = system: MDA-MB-231 breast
HL-60(TB) leukemia = system: HL-60(TB) leukemia
SK-MEL-2 melanoma = system: SK-MEL-2 melanoma
MDA-MB-435 = system: MDA-MB-435
SW-620 colon = system: SW-620 colon
SF-539 CNS = system: SF-539 CNS
A498 renal = system: A498 renal

SMILES	TGI (SK-OV-3 ovarian) [µM]	TGI (SF-295 CNS) [µM]	TGI (LOX IMVI melanoma)	TGI (MCF7 breast)	TGI (OVCAR-3 ovarian) [µM]	TGI (CCRF-CEM leukemia)	TGI (EKVX NSCLC) [µM]	TGI (MDA-MB-231 breast) [µM]	TGI (HL-60(TB) leukemia)	TGI (SK-MEL-2 melanoma)	TGI (MDA-MB-435) [µM]	TGI (SW-620 colon) [µM]	TGI (SF-539 CNS) [µM]	TGI (A498 renal) [µM]	GI50 (SK-MEL-2 melanoma) [µM]	GI50 (MCF7 breast) [µM]	GI50 (OVCAR-3 ovarian) [µM]	GI50 (CCRF-CEM leukemia) [µM]	GI50 (HL-60(TB) leukemia) [µM]
S=C1C=C(c2ccccc2)Sc2ccccc2N1	> 100	> 100	> 100 µM	> 100 µM	> 100	> 100 µM	> 100	> 100	> 100 µM	–	–	–	–	–	–	–	–	–	–
CCOC(=O)c1c(SCCO)n(-c2ccccc2)c(=S)n(-c2ccccc2)c1=O	> 100	> 100	> 100 µM	> 100 µM	> 100	> 100 µM	> 100	–	> 100 µM	> 100 µM	> 100	> 100	–	–	–	–	–	–	–
Cc1ccc(/C=N/Nc2ncccn2)s1	> 100	> 100	> 100 µM	> 100 µM	> 100	> 100 µM	> 100	> 100	–	> 100 µM	> 100	> 100	> 100	–	–	–	–	–	–
COc1cc(CC2c3cc(OC)c(OC)cc3CCN2C)c(Oc2cc3c(cc2OC)-c2c(OC)c(OC)c(OC)c4c2C(C3)N(C)CC4)cc1OC (stereo not drawn)	35	28.8	22.6 µM	–	28.2	> 50.9 µM	31.1	–	> 100 µM	28.8 µM	–	30.7	25.8	28.8	–	–	–	–	–
CC1OC(=O)c2ccccc2NC1=O (stereo not drawn)	> 100	> 100	> 100 µM	–	> 100	> 100 µM	> 100	> 100	> 100 µM	> 100 µM	> 100	> 100	> 100	> 100	–	–	–	–	–
CCOC(=O)CCC(NC(=O)OCc1ccccc1)C(=O)NC(CCC(=O)OCC)C(=O)NC(CCC(=O)OCC)C(=O)NC(CCC(=O)OCC)C(=O)NC(CCC(=O)OCC)C(=O)OCC (stereo not drawn)	> 100	> 100	> 100 µM	> 100 µM	–	> 100 µM	> 100	–	–	> 100 µM	> 100	> 100	–	–	–	–	–	–	–
Cc1n[nH]c(=O)n1N=C(c1ccccc1)c1ccccc1	–	> 100	> 100 µM	> 100 µM	> 100	> 100 µM	> 100	> 100	–	> 100 µM	> 100	> 100	–	> 100	–	–	–	–	–
CCCCCCCCCN1CCC(=O)C(C(=O)OC)C1 (stereo not drawn)	31.1	31.9	26.1 µM	24.9 µM	29.4	31.2 µM	34	–	10.9 µM	–	28.5	27.9	36.5	52.7	–	–	–	–	–
CSc1c(C#N)c2n(c3ccccc3[n+]2C)c2ncccc12	> 100	> 100	34.1 µM	42.8 µM	71.7	> 100 µM	50.5	46.9	–	39.7 µM	> 100	> 100	–	84.6	–	–	–	–	–
CCN(CC)CCNc1ccc(C)c2sc3ccc(O)cc3c(=O)c12	5.59	1.98	2.18 µM	–	4.4	1.06 µM	25.9	–	0.979 µM	3.24 µM	–	2.38	2.5	4.27	–	–	–	–	–
CSCCC(NC(c1ccccc1)c1ccccc1)[P+](=O)O (stereo not drawn)	> 100	> 100	> 100 µM	> 100 µM	> 100	> 100 µM	> 100	–	> 100 µM	> 100 µM	> 100	> 100	–	–	–	–	–	–	–
C[C@@H]1CCC2[C@@H](C)C(=O)O[C@@H]3C4C[C@@H]1[C@@]23OO[C@@]4(C)O (stereo partly drawn)	–	> 100	62.7 µM	> 100 µM	> 100	> 100 µM	> 100	> 100	–	> 100 µM	> 100	> 100	> 100	> 100	–	–	–	–	–
Nc1ccn(C2OC(COP(=O)(O)Oc3ccccc3)C(O)C2O)c(=O)n1 (stereo not drawn)	> 100	> 100	> 100 µM	> 100 µM	> 100	> 100 µM	> 100	–	> 100 µM	> 100 µM	–	> 100	> 100	> 100	–	–	–	–	–
CCC1(C)N=C(C(N)=O)c2ncn(N=C(C)C)c2N1 (stereo not drawn)	> 100	> 100	> 100 µM	–	> 100	> 100 µM	> 100	> 100	> 100 µM	–	> 100	> 100	> 100	> 100	–	–	–	–	–
C=C(Cl)C(Cl)(CBr)CCC(Cl)C(C)(C)Cl (stereo not drawn)	70.8	7.73	28 µM	3.56 µM	3.34	29.2 µM	20.9	5.83	–	1.84 µM	8.21	4.75	1.35	4.04	–	–	–	–	–
COc1ccc(C)cc1NC(=S)N/N=C/c1ccc(SC)cc1	91.4	> 100	> 100 µM	> 100 µM	> 100	> 100 µM	–	–	> 100 µM	> 100 µM	> 100	> 100	89.9	> 100	–	–	–	–	–
COc1ccc2c(c1)c1cc(OC)ccc1n2CCCCOc1ccc(-c2c3ccccc3c(-c3ccc(OCCCCn4c5ccc(OC)cc5c5cc(OC)ccc54)cc3)c3ccccc23)cc1	> 100	–	> 100 µM	–	> 100	> 100 µM	> 100	–	–	> 100 µM	–	> 100	> 100	–	–	–	–	–	–
COCN1C(=O)[C@@H]2CCCN2C(=O)c2cc([N+](=O)[O-])ccc21	> 100	> 100	> 100 µM	> 100 µM	–	–	> 100	> 100	–	> 100 µM	> 100	> 100	> 100	> 100	–	–	–	–	–
Cc1cc(=Nc2ccc3c(c2)c(N)cc(C)[n+]3C)nc(N)n1C	> 100	> 100	> 100 µM	> 100 µM	> 100	> 100 µM	> 100	> 100	–	> 100 µM	> 100	> 100	> 100	> 100	–	–	–	–	–

SMILES	TGI (SK-OV-3 ovarian) [µM]	TGI (SF-295 CNS) [µM]	TGI (LOX IMVI melanoma)	TGI (MCF7 breast)	TGI (OVCAR-3 ovarian) [µM]	TGI (CCRF-CEM leukemia)	TGI (EKVX NSCLC) [µM]	TGI (MDA-MB-231 breast) [µM]	TGI (HL-60(TB) leukemia)	TGI (SK-MEL-2 melanoma)	TGI (MDA-MB-435) [µM]	TGI (SW-620 colon) [µM]	TGI (SF-539 CNS) [µM]	TGI (A498 renal) [µM]	GI50 (SK-MEL-2 melanoma) [µM]	GI50 (MCF7 breast) [µM]	GI50 (OVCAR-3 ovarian) [µM]	GI50 (CCRF-CEM leukemia) [µM]	GI50 (HL-60(TB) leukemia) [µM]
O=C(/C=C/c1ccc(O)c(O)c1)OCCOC(=O)/C=C/c1ccc(O)c(O)c1	55.5	44.1	93.3 µM	90.9 µM	39	> 100 µM	83.1	> 100	–	45.8 µM	98	> 100	52.6	> 100	–	–	–	–	–
Cc1nc(-c2nc([N+](=O)[O-])c([N+](=O)[O-])[nH]2)cs1	> 100	> 100	> 100 µM	–	> 100	> 100 µM	> 100	–	> 100 µM	> 100 µM	–	> 100	> 100	> 100	–	–	–	–	–
CC(C)(C)/C(O)=C\c1nc2cc(C(F)(F)F)ccc2[nH]c1=O	> 100	> 100	> 100 µM	–	> 100	81.2 µM	> 100	> 100	19.8 µM	> 100 µM	> 100	> 100	–	> 100	–	–	–	–	–
S=C(Nc1ccc(Br)cn1)NC12CC3CC(CC(C3)C1)C2	67.6	49.5	–	> 100 µM	> 100	70.3 µM	65	58	–	51.7 µM	> 100	> 100	33.7	> 100	–	–	–	–	–
C[C@@H]1C(O)CC[C@H](C)C12CC=CC2=O (stereo partly drawn)	> 100	> 100	> 100 µM	> 100 µM	> 100	–	> 100	> 100	> 100 µM	> 100 µM	> 100	> 100	> 100	> 100	–	–	–	–	–
COC(=O)C1=C(O)C(C(=O)OC)[C@]2(O)[C@H](C(=O)OC)[C@H]1C[C@@H](c1ccc(OC)cc1)[C@H]2C(=O)OC (stereo partly drawn)	65.5	> 100	78.5 µM	> 100 µM	–	–	> 100	75.3	–	56.3 µM	29	> 100	> 100	34.9	–	–	–	–	–
CNC(=O)CN1CC(=O)N(C)C(=O)C1	> 100	–	> 100 µM	–	> 100	> 100 µM	–	–	> 100 µM	> 100 µM	–	> 100	–	–	–	–	–	–	–
CCN1/C(=C/C(C)=C/c2sc3ccccc3[n+]2CC)Sc2ccccc21	0.375	0.491	–	–	–	0.166 µM	1.4	–	4.78 µM	1.1 µM	–	–	1.11	1.82	–	–	–	–	–
CN1CCN(c2ccc3[nH]c(C4=C(O)c5nc(CO)n(C)c5C(=O)C4=O)nc3n2)CC1	> 100	> 100	> 100 µM	–	> 100	> 100 µM	> 100	> 100	> 100 µM	> 100 µM	> 100	> 100	> 100	–	–	–	–	–	–
Cc1ccc2[nH]c3c(C)c4ccncc4c(C)c3c2c1	4.38	2.32	4.77 µM	2.32 µM	3.27	3.74 µM	2.5	–	3.42 µM	2.63 µM	–	1.7	2.68	2.91	–	–	–	–	–
CC(C)(C)C=C=C(C(C)(C)C)P(=O)(O)O	> 100	> 100	> 100 µM	–	> 100	–	> 100	–	> 100 µM	> 100 µM	> 100	> 100	> 100	> 100	–	–	–	–	–
CC(=O)Oc1c(OC(C)=O)c(-c2ccc(O)c(O)c2)c(O)c(O)c1-c1ccc(O)cc1	> 100	> 100	94 µM and 95.9 µM	35.9 µM and > 100 µM	> 100	67.8 µM and > 100 µM	> 100	–	52.6 µM and > 100 µM	> 100 µM and 92 µM	–	> 100	> 100	> 100	56.5	18.8	59.5	24.5	19
CCCc1c2c3ccccc3nc-2nc2ccccn12	> 100	> 100	> 100 µM	–	> 100	> 100 µM	> 100	> 100	> 100 µM	> 100 µM	> 100	> 100	> 100	> 100	–	–	–	–	–
NNC(=O)c1n[nH]nc1SSc1n[nH]nc1C(=O)NN	> 100	> 100	> 100 µM	> 100 µM	> 100	> 100 µM	> 100	> 100	> 100 µM	> 100 µM	> 100	> 100	> 100	–	–	–	–	–	–
CCOC(=O)C(C)NC(=O)C(C)NC(=O)C(C)NC(=O)C(C)NC(=O)C(C)NC(=O)C(C)NC(=O)C(C)NC(=O)OCc1ccccc1 (stereo not drawn) (Cbz-AAAAAAA-OEt; configuration not given here)	> 100	> 100	> 100 µM	> 100 µM	> 100	–	> 100	> 100	> 100 µM	–	> 100	> 100	> 100	> 100	–	–	–	–	–
C=C1C(=O)OC2/C=C(\C)C(O)/C=C\C(C)(O)CC(OC(=O)/C(C)=C/C)C12 (stereo not drawn)	> 100	> 100	36.6 µM	–	46.2	> 61.7 µM	77.9	–	> 64 µM	48.8 µM	–	34.4	20.7	> 100	–	–	–	–	–
CC(C)(C)OC(=O)N1CCC23CCCC2C(=O)CC=C13 (stereo not drawn)	> 100	> 100	> 100 µM	> 100 µM	> 100	> 100 µM	> 100	> 100	> 100 µM	> 100 µM	> 100	> 100	> 100	–	–	–	–	–	–
COC/C=C\[C@@]1(O)CCCC[C@@H]1CC(OC)OC	> 100	97.3	20.9 µM	–	> 100	> 64.3 µM	> 100	> 100	> 28.4 µM	> 100 µM	> 76.1	> 100	> 100	–	–	–	–	–	–
